From patent publication US20240343727A1, “PYRIDAZINONE OR PYRIDINONE COMPOUNDS, PREPARATION METHODS AND USES THEREOF” (InventisBio Co., Ltd., priority 2021, published 2024)

molecular target: T1, PARP7 (Homo sapiens, UniProt Q7Z3E1); experiment: PARP7 TR-FRET assay (binding, displacement of biotinylated Probe A); settings: 6 nM PARP7, 2 nM Probe A, 25° C., 30 min
T1 sequence (Q7Z3E1 1-657): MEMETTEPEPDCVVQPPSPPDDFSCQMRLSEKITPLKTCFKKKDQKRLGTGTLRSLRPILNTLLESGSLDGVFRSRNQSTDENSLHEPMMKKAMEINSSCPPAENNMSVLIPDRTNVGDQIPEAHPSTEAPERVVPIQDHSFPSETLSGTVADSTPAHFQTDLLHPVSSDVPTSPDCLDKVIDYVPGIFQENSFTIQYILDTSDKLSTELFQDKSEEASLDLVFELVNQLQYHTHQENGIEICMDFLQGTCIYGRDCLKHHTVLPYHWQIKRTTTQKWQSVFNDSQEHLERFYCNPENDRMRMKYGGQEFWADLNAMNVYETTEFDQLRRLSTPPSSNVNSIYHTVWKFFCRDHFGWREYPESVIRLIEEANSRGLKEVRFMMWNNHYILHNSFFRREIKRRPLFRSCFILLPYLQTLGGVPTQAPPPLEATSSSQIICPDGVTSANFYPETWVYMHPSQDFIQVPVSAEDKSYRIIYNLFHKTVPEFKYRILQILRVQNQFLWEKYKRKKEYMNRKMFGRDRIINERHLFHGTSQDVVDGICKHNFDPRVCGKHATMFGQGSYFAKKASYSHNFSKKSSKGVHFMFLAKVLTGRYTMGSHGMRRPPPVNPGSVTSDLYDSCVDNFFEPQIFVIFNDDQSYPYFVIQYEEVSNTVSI
Method in brief: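 Compound displacement of biotinylated Probe A (2 nM) from PARP7 (6 nM) measured by TR-FRET in HEPES pH 8.0 buffer, 30 min at 25° C. Detection used ULight-anti 6xHis (4 nM) plus Eu-streptavidin (0.25 nM) for 30 min, reading the 665/615 nm ratio. % inhibition was taken against DMSO and no-enzyme wells, and IC50 from a Hill fit.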

Cc1cc(Oc2n[nH]c(=O)c(C(F)(F)F)c2C)cc(C(=O)N2CCN(c3ncc(C(F)(F)F)cn3)CC2)c1 [Compound 23] and Cc1ccc(Oc2n[nH]c(=O)c(C(F)(F)F)c2C)cc1C(=O)N1CCN(c2ncc(C(F)(F)F)cn2)CC1 [Compound 65] cannot be ordered by IC50: under 100 nM for the first, under 100 nM for the second.

First: Cc1c(Oc2cc(C(=O)N3CCN(c4ncc(C(F)(F)F)cn4)CC3)ccc2Cl)n[nH]c(=O)c1C(F)(F)F [Compound 24]
Second: Cc1c(Oc2cc(C(=O)N3CCN(c4ncc(C(F)(F)F)cn4)CC3)ccc2C2CC2)n[nH]c(=O)c1C(F)(F)F [Compound 64]
The IC50 of the first is higher: 100 to 1000 nM for the first, under 100 nM for the second.

Cc1c(Oc2ccc(F)c(C(=O)N3CCN(c4ncc(C(F)(F)F)cn4)CC3)c2)n[nH]c(=O)c1C(F)(F)F [Compound 25] and CN(C)c1c(Oc2cccc(C(=O)N3CCN(c4ncc(C(F)(F)F)cn4)CC3)c2)n[nH]c(=O)c1C(F)(F)F [Compound 83] cannot be ordered by IC50: under 100 nM for the first, under 100 nM for the second.

Cc1c(Oc2cccc(C(=O)N3CC[C@H](Oc4ncc(C(F)(F)F)cn4)C3)c2)n[nH]c(=O)c1C(F)(F)F [Compound 28] and Cc1c(Oc2cccc(C(=O)N3CC[C@@H](Oc4ncc(C(F)(F)F)cn4)C3)c2)n[nH]c(=O)c1C(F)(F)F [Compound 29] cannot be ordered by IC50: over 1000 nM for the first, over 1000 nM for the second.

First: O=C(c1ccc2c(c1)N(c1cc(C(F)(F)F)c(=O)[nH]n1)CCO2)N1CCN(c2ncc(C(F)(F)F)cn2)CC1 [Compound 30]
Second: N#Cc1ccc2c(c1)N(c1cc(C(F)(F)F)c(=O)[nH]n1)CC(CC(=O)N1CCN(c3ncc(C(F)(F)F)cn3)CC1)O2 (centres unmarked) [Compound 136]
The IC50 of the first is higher: 100 to 1000 nM for the first, under 100 nM for the second.

First: O=C([C@H]1CN(c2cc(C(F)(F)F)c(=O)[nH]n2)CCO1)N1CCN(c2ncc(C(F)(F)F)cn2)CC1 [Compound 33]
Second: O=C([C@@H]1COCCN1c1cc(C(F)(F)F)c(=O)[nH]n1)N1CCN(c2ncc(C(F)(F)F)cn2)CC1 [Compound 36]
The IC50 of the first is higher: 100 to 1000 nM for the first, under 100 nM for the second. The second is the more potent here.

Going from N#Cc1ccc(N2CCN(C(=O)[C@@H]3COCCN3c3cc(C(F)(F)F)c(=O)[nH]n3)CC2)nc1 [Compound 37] to C#Cc1cc(N2CCOCC2C(=O)N2CCN(c3ncc(C(F)(F)F)cn3)CC2)n[nH]c1=O (centres unmarked) [Compound 46], the IC50 rises from under 100 nM to over 1000 nM. The first is the more potent here.

Going from O=C(C[C@@H]1CCCN1c1n[nH]c(=O)c2ccccc12)N1CCN(c2ncc(C(F)(F)F)cn2)CC1 [Compound 47] to O=C(CC[C@@H]1CCCN1c1n[nH]c(=O)c2c(F)cccc12)N1CCN(c2ncc(C(F)(F)F)cn2)CC1 [Compound 97], the IC50 falls from over 1000 nM to under 100 nM. The second is the more potent here.

First: C[C@@H]1C[C@@H](OCC(=O)N2CCN(c3ncc(C(F)(F)F)cn3)CC2)c2n[nH]c(=O)c(C(F)(F)F)c2O1 [Compound 56]
Second: C[C@@H]1C[C@H](OCC(=O)N2CCN(c3ncc(C(F)(F)F)cn3)CC2)c2n[nH]c(=O)c(C(F)(F)F)c2O1 [Compound 115]
The IC50 of the first is lower: under 100 nM for the first, 100 to 1000 nM for the second.

O=C(CC[C@@H]1COCCN1c1cc(C(F)(F)F)c(=O)[nH]n1)N1CCN(c2ncc(C(F)(F)F)cn2)CC1 [Compound 58] and O=C(OC[C@@H]1CCCN1c1cc(C(F)(F)F)c(=O)[nH]n1)N1CCN(c2ncc(C(F)(F)F)cn2)CC1 [Compound 87] cannot be ordered by IC50: under 100 nM for the first, under 100 nM for the second.

O=C(c1cccc(Oc2n[nH]c(=O)c(C(F)(F)F)c2N2CC3(CC3)C2)c1)N1CCN(c2ncc(C(F)(F)F)cn2)CC1 [Compound 59] and O=C(c1cccc(Oc2n[nH]c(=O)c(C(F)(F)F)c2N2CC3(CCC3)C2)c1)N1CCN(c2ncc(C(F)(F)F)cn2)CC1 [Compound 70] cannot be ordered by IC50: under 100 nM for the first, under 100 nM for the second.

N#CC1CN(c2c(Oc3cccc(C(=O)N4CCN(c5ncc(C(F)(F)F)cn5)CC4)c3)n[nH]c(=O)c2C(F)(F)F)C1 [Compound 60] and O=C(c1cccc(Oc2n[nH]c(=O)c(C(F)(F)F)c2N2CC(F)C2)c1)N1CCN(c2ncc(C(F)(F)F)cn2)CC1 [Compound 85] cannot be ordered by IC50: under 100 nM for the first, under 100 nM for the second.

CNC1CN(c2c(Oc3cccc(C(=O)N4CCN(c5ncc(C(F)(F)F)cn5)CC4)c3)n[nH]c(=O)c2C(F)(F)F)C1 [Compound 61] and COC1CN(c2c(Oc3cccc(C(=O)N4CCN(c5ncc(C(F)(F)F)cn5)CC4)c3)n[nH]c(=O)c2C(F)(F)F)C1 [Compound 166] cannot be ordered by IC50: under 100 nM for the first, under 100 nM for the second.

Cc1c(Sc2cccc(C(=O)N3CCN(c4ncc(C(F)(F)F)cn4)CC3)c2)n[nH]c(=O)c1C(F)(F)F [Compound 62] and Cc1c(Nc2cccc(C(=O)N3CCN(c4ncc(C(F)(F)F)cn4)CC3)c2)n[nH]c(=O)c1C(F)(F)F [Compound 76] cannot be ordered by IC50: under 100 nM for the first, under 100 nM for the second.

Cc1c(Oc2cccc(C(=O)N3CCN(c4ncc(C(F)(F)F)s4)CC3)c2)n[nH]c(=O)c1C(F)(F)F [Compound 66] and O=C(c1cccc(Oc2n[nH]c(=O)c(C(F)(F)F)c2C2CC2)c1)N1CCN(c2ncc(C(F)(F)F)cn2)CC1 [Compound 173] cannot be ordered by IC50: under 100 nM for the first, under 100 nM for the second.

O=C(c1cccc(Oc2n[nH]c(=O)c(C(F)(F)F)c2N2CC3CC3C2)c1)N1CCN(c2ncc(C(F)(F)F)cn2)CC1 (centres unmarked) [Compound 68] and O=C(c1cccc(Oc2n[nH]c(=O)c(C(F)(F)F)c2N2CC(C(F)F)C2)c1)N1CCN(c2ncc(C(F)(F)F)cn2)CC1 [Compound 72] cannot be ordered by IC50: under 100 nM for the first, under 100 nM for the second.

CN1CC2(C1)CN(c1c(Oc3cccc(C(=O)N4CCN(c5ncc(C(F)(F)F)cn5)CC4)c3)n[nH]c(=O)c1C(F)(F)F)C2 [Compound 69] and O=C(c1cccc(Oc2n[nH]c(=O)c(C(F)(F)F)c2N2CC3(COC3)C2)c1)N1CCN(c2ncc(C(F)(F)F)cn2)CC1 [Compound 165] cannot be ordered by IC50: under 100 nM for the first, under 100 nM for the second.

Compared with CNc1c(Oc2cccc(C(=O)N3CCN(c4ncc(C(F)(F)F)cn4)CC3)c2)n[nH]c(=O)c1C(C)=O [Compound 74], C#Cc1c(C)c(Oc2cccc(C(=O)N3CCN(c4ncc(C(F)(F)F)cn4)CC3)c2)n[nH]c1=O [Compound 75] is lower in IC50: over 1000 nM for the first, under 100 nM for the second. The second is the more potent here.

Cc1c(N(C)c2cccc(C(=O)N3CCN(c4ncc(C(F)(F)F)cn4)CC3)c2)n[nH]c(=O)c1C(F)(F)F [Compound 77] and CN(C)CCNc1c(Oc2cccc(C(=O)N3CCN(c4ncc(C(F)(F)F)cn4)CC3)c2)n[nH]c(=O)c1C(F)(F)F [Compound 172] cannot be ordered by IC50: under 100 nM for the first, under 100 nM for the second.

CN(C)C1CN(c2c(Oc3cccc(C(=O)N4CCN(c5ncc(C(F)(F)F)cn5)CC4)c3)n[nH]c(=O)c2C(F)(F)F)C1 [Compound 82] and CC1(C)CN(c2c(Oc3cccc(C(=O)N4CCN(c5ncc(C(F)(F)F)cn5)CC4)c3)n[nH]c(=O)c2C(F)(F)F)C1 [Compound 174] cannot be ordered by IC50: under 100 nM for the first, under 100 nM for the second.

O=C(c1cncc(Oc2n[nH]c(=O)c(C(F)(F)F)c2N2CC3(CCC3)C2)c1)N1CCN(c2ncc(C(F)(F)F)cn2)CC1 [Compound 84] and O=C(c1cccc(Oc2n[nH]c(=O)c(C(F)(F)F)c2N2CC3(CCCO3)C2)c1)N1CCN(c2ncc(C(F)(F)F)cn2)CC1 [Compound 162] cannot be ordered by IC50: under 100 nM for the first, under 100 nM for the second.

Compared with COC[C@@H]1C[C@H](OCC(=O)N2CCN(c3ncc(C(F)(F)F)cn3)CC2)c2n[nH]c(=O)c(C(F)(F)F)c2O1 [Compound 116], Cc1c(N2CCC[C@H]2CCC(=O)N2CCN(c3ncc(C(F)(F)F)cn3)CC2)n[nH]c(=O)c1C(F)(F)F [Compound 127] is lower in IC50: 100 to 1000 nM for the first, under 100 nM for the second.

Compared with O=C(c1cccc(Oc2n[nH]c(=O)c(C(F)(F)F)c2C#CC2CC2)c1)N1CCN(c2ncc(C(F)(F)F)cn2)CC1 [Compound 139], O=C(c1cccc(Oc2n[nH]c(=O)c(C(F)(F)F)c2NC2CC(F)(F)C2)c1)N1CCN(c2ncc(C(F)(F)F)cn2)CC1 [Compound 167] is lower in IC50: 100 to 1000 nM for the first, under 100 nM for the second.

O=C(CC1CN(c2cc(C(F)(F)F)c(=O)[nH]n2)c2cc(F)ccc2O1)N1CCN(c2ncc(Br)cn2)CC1 (centres unmarked) [Compound 142] and N#CC1(c2ccnc(N3CCN(C(=O)CC4CN(c5cc(C(F)(F)F)c(=O)[nH]n5)c5cc(Cl)ccc5O4)CC3)n2)CC1 (centres unmarked) [Compound 150] cannot be ordered by IC50: under 100 nM for the first, under 100 nM for the second.

C[C@@H]1CN(C(=O)c2cc(Oc3n[nH]c(=O)c(C(F)(F)F)c3N3CC4(C3)CC(F)(F)C4)ccn2)CCN1c1cnc(C(F)(F)F)cn1 [Compound 147] and C[C@@H]1CN(C(=O)c2cncc(Oc3n[nH]c(=O)c(C(F)(F)F)c3N3CC4(C3)CC(F)(F)C4)c2)CCN1c1cnc(C(F)(F)F)cn1 [Compound 155] cannot be ordered by IC50: under 100 nM for the first, under 100 nM for the second.

O=C(c1cc(Oc2n[nH]c(=O)c(C(F)(F)F)c2N2CC3(C2)CC(F)(F)C3)ccn1)N1CCN(c2ccc(C(F)(F)F)cn2)CC1 [Compound 148] and N#Cc1ccc(N2CCN(C(=O)c3cccc(Oc4n[nH]c(=O)c(C(F)(F)F)c4N4CC5(CCC5)C4)c3)CC2)nc1 [Compound 161] cannot be ordered by IC50: under 100 nM for the first, under 100 nM for the second.

Compared with O=C(c1cccc(Oc2n[nH]c(=O)c(C(F)(F)F)c2N2CC3(CCC3)C2)c1)N1CCC(F)(F)CC1 [Compound 159], CC(=O)N1CCN(C(=O)c2cccc(Oc3n[nH]c(=O)c(C(F)(F)F)c3N3CC4(CCC4)C3)c2)CC1 [Compound 160] is lower in IC50: 100 to 1000 nM for the first, under 100 nM for the second.

Compared with COCCNc1c(Oc2cccc(C(=O)N3CCN(c4ncc(C(F)(F)F)cn4)CC3)c2)n[nH]c(=O)c1C(F)(F)F [Compound 169], CNC1CC(Nc2c(Oc3cccc(C(=O)N4CCN(c5ncc(C(F)(F)F)cn5)CC4)c3)n[nH]c(=O)c2C(F)(F)F)C1 (centres unmarked) [Compound 171] is higher in IC50: under 100 nM for the first, 100 to 1000 nM for the second. The first is the more potent here.
